Results: US20180344805A1, “GLYCOLIPID COMPOUNDS AND THEIR USES IN THE TREATMENT OF TUMOURS” (Agalimmune Limited (GB/GB), priority 2015, published 2018)

Columns and labels:
CHO-K1 cells [1] = test: Complement Dependent Cytotoxicity Assay; assay type: cell-based; conditions: for Lysis of glycolipid-labelled cells by human serum complement: CHO-K1 cells labelled with glycolipid, 50% human serum, FIGS. 3 to 5; for EC50: Cricetulus griseus, CHO-K1 cells labelled with glycolipid 1 hour at 37° C., then 50% human serum complement 1 hour at 37° C., cell viability by CellTiter-Glo
Protocol: CHO-K1 cells were harvested from cell culture flasks, counted and resuspended in PBS to a cell density of 5×10^6 cells/ml. Each glycolipid was serially diluted in PBS across nine 1.5 ml centrifuge tubes so that the final volume in the tubes was 100 μl. To each tube, 100 μl of the CHO-K1 cell suspension was added and the tubes incubated for 1 hour at 37° C. After an hour the tubes were placed on ice for 5 minutes and then the cells washed 3 times with 500 μl of ice-cold PBS. The cells were resuspended in a final volume of 250 μl of ice-cold PBS and 50 μl aliquots were transferred to duplicate wells of a 96 well plate. To each well containing cells 50 μl of 100% normal or heat-inactivated (30 minutes at 56° C.) human serum complement (Innovative Research) was added so that the final concentration of human serum was 50%. The plate was incubated at 37° C. for 1 hour, after which cell viability was measured using CellTiter-Glo reagent (Promega) read on a EnVision plate reader (Perkin Elmer).

CHO-K1 cells [2] = test: Anti-Gal Recruitment Assay; assay type: cell-based; conditions: CHO-K1 cells incubated with glycolipid 1 hour at 37° C.; monoclonal anti-Gal IgG1, FITC-conjugated anti-human IgG, flow cytometry; FIGS. 1 and 2
Protocol: CHO-K1 cells were harvested from cell culture flasks, counted and resuspended in PBS to a cell density of 5×10^6 cells/ml. Each glycolipid was serially diluted in PBS across nine 1.5 ml centrifuge tubes so that the final volume in the tubes was 100 μl. To each tube, 100 μl of the CHO-K1 cell suspension was added and the tubes incubated for 1 hour at 37° C. After an hour the cells were pelleted by centrifugation at 400 g for 3 minutes and resuspended in 500 μl of PBS+0.1% BSA. This was repeated twice more to wash the cells. After the final wash the cells were resuspended in 100 μl of monoclonal anti-Gal IgG1 diluted 1:8 in PBS+0.1% BSA. The tubes were incubated on ice for 30 minutes. After 30 minutes the cells were pelleted by centrifugation at 400 g for 3 minutes and resuspended in 500 μl of PBS+0.1% BSA. This was repeated twice more to wash the cells. After the final wash the cells were resuspended in 100 μl of FITC-conjugated mouse anti-human IgG (Biolegend) and the tubes incubated on ice for 30 minutes. After 30 minutes the cells were pelleted by centrifugation at 400 g for 3 minutes and resuspended in 500 μl of PBS+0.1% BSA. This was repeated twice more to wash the cells. […] After 5 minutes incubation on ice the cells were analysed on a Cytomics FC500 flow cytometer (Beckman Coulter). […]

Structure (SMILES)	Lysis of glycolipid-labelled cells by human serum complement (CHO-K1 cells [1])	EC50 (CHO-K1 cells [1]) [µM]	Membrane incorporation and recruitment of anti-Gal antibody (CHO-K1 cells [2])
CCCCCCCC/C=C\CCCCCCCC(=O)OCC(COP(=O)(O)OCCNC(=O)CCCCC(=O)NCCCO[C@@H]1OC(CO)[C@@H](O[C@@H]2OC(CO)[C@H](O)C(O[C@H]3OC(CO)[C@H](O)C(O)C3NC(C)=O)C2O)C(O)C1NC(C)=O)OC(=O)CCCCCCC/C=C\CCCCCCCC (some centres unmarked) [Example 3, GalNAcα1-3Galβ1-4GlcNAc-Ad-DOPE]	are lysed by human serum complement	86.8	–
CCCCCCCC/C=C\CCCCCCCC(=O)OCC(COP(=O)(O)OCCNC(=O)CCCCC(=O)NCC(=O)NCC(=O)N(CC(=O)O)CC(=O)NCC(=O)NCC(=O)N(CC(=O)O)CC(=O)NCCNC(=O)CN(CC(=O)O)C(=O)CNC(=O)CNC(=O)CN(CC(=O)O)C(=O)CNC(=O)CNC(=O)CCCCC(=O)NCCCO[C@@H]1OC(CO)[C@@H](O[C@@H]2OC(CO)[C@H](O)[C@H](O[C@H]3OC(CO)[C@H](O)[C@H](O)C3O)C2O)[C@H](O)C1NC(C)=O)OC(=O)CCCCCCC/C=C\CCCCCCCC (some centres unmarked) [Example 1, Galili-CMG2-DOPE]	are lysed by human serum complement	7.02	incorporates into the plasma membrane of CHO-K1 cells and presents the alpha-Gal epitope for recognition by anti-Gal antibodies
